Tested on: HeLa cells
Test: Accumulation of SUMOylated proteins in HeLa cells (Western blot, 48 hours)
Format: cell-based

Nc1ccc2ccccc2c1/N=N/c1ccc(/C=C/c2ccc(/N=N/c3c(N)ccc4ccccc34)cc2S(=O)(=O)O)c(S(=O)(=O)O)c1 [SPI-01]
accumulation of SUMO-1 conjugates in cells: less significant effects | accumulation of SUMO-2/3 conjugates in cells (increasing concentrations): accumulation correlated with inhibitor concentration
